We go through nine compounds from patent publication US11427548B2 (Arvinas Operations, Inc., priority 2015, dated 2022).

Like-named read-outs stand apart in the source and are kept apart here. Some results are limits rather than exact numbers.

Data set [1] deals with T1, Androgen Receptor (Homo sapiens, UniProt P10275).
T1 construct: endogenous in cells; host or cells: VCaP cells
T1 sequence (P10275 1-920): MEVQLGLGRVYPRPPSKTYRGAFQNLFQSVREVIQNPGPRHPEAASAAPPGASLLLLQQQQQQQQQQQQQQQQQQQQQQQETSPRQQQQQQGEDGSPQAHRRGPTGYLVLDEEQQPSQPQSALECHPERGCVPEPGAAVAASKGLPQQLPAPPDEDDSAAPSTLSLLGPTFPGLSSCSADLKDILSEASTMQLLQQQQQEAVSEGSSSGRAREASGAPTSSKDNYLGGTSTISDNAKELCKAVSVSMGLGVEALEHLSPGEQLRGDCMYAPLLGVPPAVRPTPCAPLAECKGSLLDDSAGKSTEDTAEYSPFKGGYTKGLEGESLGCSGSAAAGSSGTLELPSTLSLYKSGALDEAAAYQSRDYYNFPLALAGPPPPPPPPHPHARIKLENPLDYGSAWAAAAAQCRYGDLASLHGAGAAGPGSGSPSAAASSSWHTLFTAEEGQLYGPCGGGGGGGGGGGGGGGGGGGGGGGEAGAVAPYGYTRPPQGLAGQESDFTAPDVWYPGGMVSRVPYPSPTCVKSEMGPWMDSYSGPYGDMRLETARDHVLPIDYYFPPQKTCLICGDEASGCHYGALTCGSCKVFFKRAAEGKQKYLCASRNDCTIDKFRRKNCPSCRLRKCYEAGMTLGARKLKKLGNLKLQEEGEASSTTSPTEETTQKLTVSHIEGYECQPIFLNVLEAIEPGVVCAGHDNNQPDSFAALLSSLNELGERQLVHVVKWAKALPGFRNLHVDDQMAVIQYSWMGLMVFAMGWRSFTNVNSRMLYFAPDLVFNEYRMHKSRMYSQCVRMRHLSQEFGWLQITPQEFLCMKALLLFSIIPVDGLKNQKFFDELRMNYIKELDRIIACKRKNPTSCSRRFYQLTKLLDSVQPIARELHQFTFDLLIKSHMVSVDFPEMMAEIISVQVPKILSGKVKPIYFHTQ
Description: Androgen Receptor ELISA assay (PathScan AR ELISA) in VCaP cells: AR degradation, Dmax and DC50. The data set is classed as cell-based. The settings on record: for Dmax: VCaP, read-out: VCaP Dmax (%); for DC50: read-out: VCaP DC50. The essentials: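 VCaP cells in phenol red-free RPMI with 5% charcoal-stripped FBS were grown at least 3 days, then given compound as 7 half-log doses in 0.1% DMSO with 0.1 nM R1881 for 24 h. Lysates went into a sandwich AR ELISA with TMB read at 450 nm.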
Background: ELISA stands for enzyme-linked immunosorbent assay.

In data set [2] the target is T2, Androgen Receptor (Homo sapiens, UniProt P10275+P40337, T878A).
T2 construct: Compounds have been evaluated in this assay in LNCaP and/or VCaP cells utilizing similar protocols; endogenous in cells; host or cells: LNCaP cells
Briefly: Androgen Receptor ELISA assay (PathScan AR ELISA) in LNCaP cells: AR degradation, Dmax and DC50. The class given is cell-based. The settings on record: for DC50: concentration that caused 50% Androgen Receptor degradation; for Dmax: highest percentage of Androgen Receptor degradation observed.

The subject of data set [3] is VCaP cells. Description: VCaP cell proliferation assay (Cell Titer Glo), GI50. The class given is cell-based. The following applies: Homo sapiens; VCaP cells, 0.1 nM R1881; Table 37; read-out: GI50, Inhibition of VCaP Proliferation. The protocol: 2. VCaP Cell Proliferation Assay.
VCaP cells are plated 7,500/well 200 μL/well in VCaP assay medium [Phenol red free RPMI (Gibco Cat #11835-030); 5% Charcoal Stripped (Dextran treated) FBS (Omega Scientific, Cat #FB-04); Pen/Strep Life Technologies (Gibco Cat #: 10378-016); 0.1 nM R1881 (Sigma, Cat #R0908) is added upon the start of the assay, not during initial plating of the cells).
The assay was performed as follows: the cells are grown for a minimum of 3 days to deplete androgens; dosing of PROTACs and R1881 is performed as for AR ELISA; the baseline reading of Cell Titer Glo can be performed on day of dosing.
VCaP cells with 0.1 nM R1881 will double once in 4 days. Gently draw off 110 μL of media so as not to disturb the adherent cells; add 110 μL of CTG; incubate with slow shaking for 20 minutes; and read luminescence on a plate reader.

Data set [4] is described as follows: PROTAC subcutaneous pharmacokinetics in CD-1 mice. The class given is in vivo. The settings on record: male, plasma, CD-1 Mouse, 10 mg/kg SC dose; for AUC(0-t): read-out: Plasma Exposure AUC0-24; for Cmax: read-out: Plasma Exposure Cmax. Here is the method: (§1) 9. PROTAC Prodrug Oral Pharmacokinetics and PROTAC Subcutaneous Phamacokinetics.
(§2) Representative Pharmacokinetic Procedure
(§3) Male CD-1 mice (6-8 weeks old, weighing 20-30 g, 3 per study) with free access to food and water were administered with the test article at 10 mg/kg either by oral gavage or sub-cutaneous injection in the formulation specified in tables 20 and 21, at 10 mL/kg.
(§4) Approximately 0.04 mL blood samples were collected from the dorsal metatarsal vein serially at 0.25, 0.5, 1, 2, 4, 8 and 24 h timepoints; heparin was used as the anticoagulant. The samples were centrifuged at 4000 g for 5 min at 4° C. then stored at −75° C. prior to analysis.
(§5) The plasma samples were analysed via an LC/MS/MS method quantitating for unchanged, administered test article, and/or a derivative species as appropriate. WinNonlin (Phoenix™) was used for the pharmacokinetic calculations and modeling, to generate parameters such as Cmax and AUC.

Data set [5] is described as follows: PROTAC prodrug oral pharmacokinetics in CD-1 mice. The class given is in vivo. The settings on record: male, mouse, plasma, 10 mg/kg, 10 mpk PO; for AUC: read-out: Plasma Exposure Prodrug AUC; for Cmax: read-out: Plasma Exposure Prodrug Cmax. The protocol: as §1, §2, §3, §4, §5
Setting [6] is: highest percentage of Androgen Receptor degradation observed, VCaP cells (Table 32).
[7] abbreviates: concentration that caused 50% Androgen Receptor degradation, VCaP cells (Table 32).
[8] abbreviates: vehicle ESP-4, prodrug measured.
[9] abbreviates: vehicle ESD-4, prodrug measured.

One may read the Dmax as the largest share of the target that was removed. Usually DC50 stands for the concentration giving 50% degradation. A word on the Cmax: it is the maximum level reached in the sampled fluid or tissue. As usually defined, the AUC is concentration integrated over time.

T2 sequence (P10275 whole entry T878A): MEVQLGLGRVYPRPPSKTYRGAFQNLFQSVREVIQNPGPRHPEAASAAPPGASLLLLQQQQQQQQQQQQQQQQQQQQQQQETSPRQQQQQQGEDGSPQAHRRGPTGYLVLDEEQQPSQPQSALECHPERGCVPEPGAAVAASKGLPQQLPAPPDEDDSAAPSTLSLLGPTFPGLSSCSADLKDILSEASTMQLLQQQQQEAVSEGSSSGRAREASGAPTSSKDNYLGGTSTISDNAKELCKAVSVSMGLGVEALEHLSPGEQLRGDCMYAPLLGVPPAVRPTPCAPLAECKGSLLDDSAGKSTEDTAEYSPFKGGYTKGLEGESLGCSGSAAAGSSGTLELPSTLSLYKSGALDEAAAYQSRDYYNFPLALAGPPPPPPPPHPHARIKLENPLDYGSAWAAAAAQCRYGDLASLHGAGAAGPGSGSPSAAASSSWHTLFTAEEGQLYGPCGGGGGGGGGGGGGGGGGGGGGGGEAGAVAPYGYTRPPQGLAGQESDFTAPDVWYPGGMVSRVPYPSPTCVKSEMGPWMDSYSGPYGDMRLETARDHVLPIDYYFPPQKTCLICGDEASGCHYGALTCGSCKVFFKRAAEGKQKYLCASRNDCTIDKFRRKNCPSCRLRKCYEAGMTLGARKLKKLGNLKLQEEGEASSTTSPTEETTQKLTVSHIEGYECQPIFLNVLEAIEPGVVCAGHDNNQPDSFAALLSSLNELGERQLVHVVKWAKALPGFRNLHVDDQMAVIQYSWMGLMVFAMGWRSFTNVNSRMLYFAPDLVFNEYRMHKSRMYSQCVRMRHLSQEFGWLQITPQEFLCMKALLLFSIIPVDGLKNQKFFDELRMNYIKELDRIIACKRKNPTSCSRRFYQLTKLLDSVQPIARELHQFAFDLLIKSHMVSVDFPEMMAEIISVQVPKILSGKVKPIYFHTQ
T2 sequence (P40337 whole entry): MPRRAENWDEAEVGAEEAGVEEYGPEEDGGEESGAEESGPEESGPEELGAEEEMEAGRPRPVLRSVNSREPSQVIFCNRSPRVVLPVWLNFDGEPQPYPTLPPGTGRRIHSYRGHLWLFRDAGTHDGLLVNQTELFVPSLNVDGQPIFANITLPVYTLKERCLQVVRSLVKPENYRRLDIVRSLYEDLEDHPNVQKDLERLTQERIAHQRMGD
T2 sequence (Q15369 whole entry partner): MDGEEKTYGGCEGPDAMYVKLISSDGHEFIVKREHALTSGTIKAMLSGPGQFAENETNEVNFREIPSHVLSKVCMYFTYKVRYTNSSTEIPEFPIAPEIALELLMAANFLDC
T2 sequence (Q15370 whole entry partner): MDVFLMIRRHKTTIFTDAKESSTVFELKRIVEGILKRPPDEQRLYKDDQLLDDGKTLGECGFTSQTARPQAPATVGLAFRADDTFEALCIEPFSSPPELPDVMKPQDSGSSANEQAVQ

For `Cc1ncsc1-c1ccc(CNC(=O)[C@@H]2C[C@@H](O)CN2C(=O)[C@@H](NC(=O)COCCCCOc2ccc(-c3ccc(N4C(=S)N(c5ccc(C#N)c(C(F)(F)F)c5)C(=O)C4(C)C)cc3)cc2)C(C)(C)C)cc1` [Example 75, (2S,4R)-1-[(2S)-2-(2-{4-[4-(4-{3-[4-cyano-3-(trifluoromethyl)phenyl]-5,5-dimethyl-4-oxo-2-sulfanylideneimidazolidin-1-yl}phenyl)phenoxy]butoxy}acetamido)-3,3-dimethylbutanoyl]-4-hydroxy-N-{[4-(4-methyl-1,3-thiazol-5-yl)phenyl]methyl}pyrrolidine-2-carboxamide], the maximal degradation (Dmax) in data set [1] and in data set [2] was more than 71% throughout. Also, the DC50 in data set [1] (concentration that caused 50% Androgen Receptor degradation, VCaP cells) was less than 50 nM; in data set [2], less than 50 nM. For the same compound, the GI50 in data set [3] is 51 to 250 nM.

As for `Cc1ncsc1-c1ccc(CNC(=O)[C@@H]2C[C@@H](O)CN2C(=O)[C@@H](NC(=O)COCCCOCCN2CCC(c3ccc(N4C(=S)N(c5ccc(C#N)c(C(F)(F)F)c5)C(=O)C4(C)C)cc3)CC2)C(C)(C)C)cc1` [Example 80, (2S,4R)-1-((S)-2-(2-(3-(2-(4-(4-(3-(4-cyano-3-(trifluoromethyl)phenyl)-5,5-dimethyl-4-oxo-2-thioxoimidazolidin-1-yl)phenyl)piperidin-1-yl)ethoxy)propoxy)acetamido)-3,3-dimethylbutanoyl)-4-hydroxy-N-(4-(4-methylthiazol-5-yl)benzyl)pyrrolidine-2-carboxamide], the Dmax in data set [1] lay in the range of 26 to 50%. In data set [2], this compound registered a DC50 of more than 501 nM and a Dmax of 51 to 70%. In data set [4] (vehicle ELP-1), the AUC(0-t) was found to be 2530 ng·h/mL and the peak concentration (Cmax) was 180 ng/mL.

On to `CC(C)(C)[C@H](NC(=O)COCCCCCOc1ccc(C(=O)N[C@H]2C(C)(C)[C@H](Oc3ccc(C#N)c(Cl)c3)C2(C)C)cc1)C(=O)N1C[C@H](O)C[C@H]1C(=O)NCc1ccc(-c2cncs2)cc1` [Example 150, (2S,4R)-1-[(2S)-3,3-dimethyl-2-(2-{[5-(4-{[trans-3-(3-chloro-4-cyanophenoxy)-2,2,4,4-tetramethylcyclobutyl]carbamoyl}phen-oxy)pentyl]oxy}acetamido)butanoyl]-4-hydroxy-N-{[4-(1,3-thiazol-5-yl)phenyl]methyl}pyrrolidine-2-carboxamide], for which, in data set [1] (setting [6]), the maximal degradation (Dmax) was more than 71%. The 50% degradation concentration (DC50) in data set [1] (setting [7]) was less than 50 nM. In data set [4] (vehicle ESD-1), the AUC(0-t) stood at 40200 ng·h/mL and the Cmax was found to be 2750 ng/mL. Moreover, in data set [3], the GI50 was not above 50 nM.

In the case of `Cc1ncsc1-c1ccc([C@H](C)NC(=O)[C@@H]2C[C@@H](O)CN2C(=O)[C@@H](NC(=O)COCCCCCNc2ccc(C(=O)N[C@H]3C(C)(C)[C@H](Oc4ccc(C#N)c(Cl)c4)C3(C)C)cc2)C(C)(C)C)cc1` [Example 174, (2S,4R)-1-[(2S)-3,3-dimethyl-2-[2-({5-[(4-{[trans-3-(3-chloro-4-cyanophenoxy)-2,2,4,4-tetramethylcyclobutyl]carbamoyl}phenyl)amino]pentyl}oxy)acetamido]butanoyl]-4-hydroxy-N-[(1S)-1-[4-(4-methyl-1,3-thiazol-5-yl)phenyl]ethyl]pyrrolidine-2-carboxamide], the Dmax in data set [1] (setting [6]) is more than 71%. In addition, the DC50 in data set [1] (setting [7]) was less than 50 nM. In data set [4] (vehicle ESD-1), the AUC(0-t) amounted to 35100 ng·h/mL and the Cmax was 1900 ng/mL. Moreover, the GI50 in data set [3] is not above 50 nM.

In the case of `Cc1ncsc1-c1ccc(CNC(=O)[C@@H]2C[C@@H](O)CN2C(=O)[C@@H](NC(=O)COCCOc2ccc(-c3ccc(C(=O)N[C@H]4C(C)(C)[C@H](Oc5ccc(C#N)c(Cl)c5)C4(C)C)cc3)cc2)C(C)(C)C)cc1` [Example 182, (2S,4R)-1-[(2S)-3,3-dimethyl-2-(2-{2-[4-(4-{[trans-3-(3-chloro-4-cyanophenoxy)-2,2,4,4-tetramethylcyclobutyl]carbamoyl}phenyl)phenoxy]ethoxy}acetamido)butanoyl]-4-hydroxy-N-{[4-(4-methyl-1,3-thiazol-5-yl)phenyl]methyl}pyrrolidine-2-carboxamide], the Dmax in data set [1] (setting [6]) is more than 71%. Besides, in data set [4] (vehicle ELP-1), the AUC(0-t) was determined as 29200 ng·h/mL and the highest concentration (Cmax) came out at 1530 ng/mL. In addition, in data set [3], the GI50 was not above 50 nM.

As to `Cc1ncsc1-c1ccc([C@H](C)NC(=O)[C@@H]2C[C@@H](OC(=O)[C@@H](N)C(C)C)CN2C(=O)[C@@H](NC(=O)COCCCCCNc2ccc(C(=O)N[C@H]3C(C)(C)[C@H](Oc4ccc(C#N)c(Cl)c4)C3(C)C)cc2)C(C)(C)C)cc1` [Example 463], in data set [5] (setting [8]), the AUC came to 49 ng·h/mL and the Cmax is 12 ng/mL.

Consider `Cc1ncsc1-c1ccc([C@H](C)NC(=O)[C@@H]2C[C@@H](O)CN2C(=O)[C@@H](NC(=O)COCCCCCNc2ccc(C(=O)N[C@H]3C(C)(C)[C@H](Oc4ccc(C#N)c(C(F)(F)F)n4)C3(C)C)cc2)C(C)(C)C)cc1` [Example 464], for which, in data set [1] (VCaP cells, Table 35), the DC50 was more than 501 nM and the Dmax was more than 71%. In addition, in data set [5] (setting [8]), the AUC was determined as 118 ng·h/mL and the highest concentration (Cmax) came out at 48 ng/mL.

As to `CC(=O)O[C@@H]1C[C@@H](C(=O)N[C@@H](C)c2ccc(-c3scnc3C)cc2)N(C(=O)[C@@H](NC(=O)COCCCCCNc2ccc(C(=O)N[C@H]3C(C)(C)[C@H](Oc4ccc(C#N)c(Cl)c4)C3(C)C)cc2)C(C)(C)C)C1` [Example 469], in data set [1] (VCaP cells, Table 35), the DC50 is less than 50 nM and the Dmax is more than 71%. For the same compound, in data set [5] (setting [9]), the exposure (AUC) is 353 ng·h/mL and the Cmax amounted to 181 ng/mL.

On to `Cc1ncsc1-c1ccc([C@H](CN(C)C)NC(=O)[C@@H]2C[C@@H](O)CN2C(=O)[C@@H](NC(=O)COCCCCCOc2ccc(C(=O)N[C@H]3C(C)(C)[C@H](Oc4ccc(C#N)c(Cl)c4)C3(C)C)cc2)C(C)(C)C)cc1` [Example 470], for which, in data set [1] (VCaP cells, Table 35), the DC50 was less than 50 nM and the Dmax was more than 71%. Besides, in data set [5] (setting [8]), the AUC came out at 469 ng·h/mL and the Cmax was found to be 346 ng/mL.
